Assay results published in US4153710A, “N-(4-[2-(pyrazole-1-carbonamide)-ethyl]-benzenesulphonyl)-urea” (Starogardzkie Zaklady Farmaceutyczne POLFA, priority 1976, dated 1979).

Legend:
Type in all cases: in vivo
[1] = tested on: blood-glucose concentration; assay: ED30 oral hypoglycemic dose in mice (Table 2); conditions: Mus musculus, oral, read-out: Effective oral doses ED30
Description: (§1) The hypoglycemic activity of N-{4-[2-(pyrazole-1-carbonamide)-ethyl]-benzenesulphonyl}-ureas prepared according to the present invention can be noticed after their oral administration to mice, rats, rabbits and people and when determining the glucose concentration in blood with a known enzymatic method using glucose oxidase.
(Table 2). […] It has been observed that even 9 hours after the administration of one dose of SPC-5002 to rats, the glucose level in blood was decreased, whereas in the case of Glibornuride the glucose level comes back to its normal value in 6 hours from the time of the administration.

glucose concentration = assay: Blood glucose in normal men volunteers (Table 7); conditions: for decrease in blood-glucose vs starting value: 5 mg oral; for Glucose concentration: oral 5 mg SPC-5002 or 12.5 mg Glibornuride
Description: as §1
When administered to normal men volunteers it has been stated that 60 minutes after the administration of SPC-5002 a 5 mg oral dose causes the decrease in blood-glucose of 28% in comparision to the starting value and after 90 minutes it reaches 33% (Table 7). Whereas Glibornuride employed in a dose 2.5 times as big on peak of its activity decreases the glucose blood level only of 19%. It can clearly be noticed that there is a positive correlation between the glycemic and insulin level curves. Both examined preparations cause a significant decrease in free fatty acids in blood. […] 60 and 90 minutes after the SPC-5002 administration, the blood-glycose level is decreased to 33 and 52% while in the Placebo group it is maintained in the range of 13-14%.
The comparison of glucose, insulin and free fatty acids concentration in
normal men after the oral administration of 5 mg of SPC-5002 or 12.5 mg

[2] = tested on: blood-glucose concentration; assay: Blood-glucose time course up to 24 hours in rabbits (Table 4); conditions: for glucose concentration in blood, average: oral 5 mg/kg
Description: as §1, with “oxidase. […]” for “oxidase.”
The comparison of SPC-5002 and Glibornuride effect on changes in
concentration of rabbits in time up to 24 hours from the moment of the
in an oral dose containing 5 mg/kg body weight

SMILES: Cc1ccn(C(=O)NCCc2ccc(S(=O)(=O)NC(=O)NC3CCCCC3)cc2)n1 [SPC-5002, N-{4-[2-(3-methylpyrazole-1-carbonamide)-ethyl]-benzenesulphonyl}-N'-cyclohexylourea]
- ED30 [1]: 1.9 mg/kg
- decrease in blood-glucose vs starting value (glucose concentration; 60 minutes): 28%
- decrease in blood-glucose vs starting value (glucose concentration; 90 minutes): 33%
- Glucose concentration (glucose concentration; 0 mins (empty stomach)): 96.8 mg/100 cc
- Glucose concentration (glucose concentration; 30 mins): 88.5 mg/100 cc
- Glucose concentration (glucose concentration; 60 mins): 69.0 mg/100 cc
- Glucose concentration (glucose concentration; 90 mins): 65.5 mg/100 cc
- Glucose concentration (glucose concentration; 120 mins): 76.5 mg/100 cc
- Glucose concentration (glucose concentration; 180 mins): 79.7 mg/100 cc
- effectiveness and duration relative to Glibornuride [2]: more effective and longer activity in comparison to Glibornuride
- glucose concentration in blood, average ([2]; 0 h): 71 mg/100 cc
- glucose concentration in blood, average ([2]; 0.5 h): 57 mg/100 cc
- glucose concentration in blood, average ([2]; 1 h): 59 mg/100 cc
- glucose concentration in blood, average ([2]; 3 h): 63 mg/100 cc
- glucose concentration in blood, average ([2]; 6 h): 62 mg/100 cc
- glucose concentration in blood, average ([2]; 9 h): 62 mg/100 cc
- glucose concentration in blood, average ([2]; 24 h): 70 mg/100 cc
